Our source for the Ki values is US6693108B2, “Inhibitors of c-JUN N terminal kinases (JNK) and other protein kinases” (Vertex Pharmaceuticals Incorporated, priority 1999, dated 2004).

Usually Ki stands for a measure of affinity in units of concentration, obtained from inhibition or displacement.

For this assay, the target named is T1, activated JNK3 (Homo sapiens, UniProt P53779).
T1 construct: One such construct encodes amino acid residues Ser40-Glu402 of JNK3α1 and is preceded by Met and Gly residues; Met-Gly (initiation Met plus Gly added to create the NcoI site) (N); made in house; host or cells: E. coli BL21 (DE3)
T1 sequence (P53779 40-402): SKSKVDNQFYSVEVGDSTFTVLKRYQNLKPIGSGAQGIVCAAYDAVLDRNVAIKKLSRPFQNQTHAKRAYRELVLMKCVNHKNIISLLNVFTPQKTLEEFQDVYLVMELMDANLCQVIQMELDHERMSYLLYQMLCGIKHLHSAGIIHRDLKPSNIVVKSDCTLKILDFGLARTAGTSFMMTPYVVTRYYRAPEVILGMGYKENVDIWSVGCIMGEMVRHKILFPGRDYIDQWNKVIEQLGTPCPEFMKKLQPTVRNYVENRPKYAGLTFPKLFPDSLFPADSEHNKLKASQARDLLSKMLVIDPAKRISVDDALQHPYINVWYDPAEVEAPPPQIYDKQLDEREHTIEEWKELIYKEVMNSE
Kind of assay: JNK3 inhibition, spectrophotometric coupled-enzyme assay. It counts as biochemical. The conditions noted are these: read-out: Activity in the JNK3 Inhibition Assay (Ki rating). An excerpt: A BLAST search of the EST database using the published JNK3α1 cDNA as a query identified an EST clone (#632588) that contained the entire coding sequence for human JNK3α1. Polymerase chain reactions (PCR) using pfu polymerase (Strategene) were used to introduce restriction sites into the cDNA for cloning into the pET-15B expression vector at the NcoI and BamHI sites. The protein was expressed in E. coli. […] This truncation corresponds to Ser 2 of JNK1 and JNK2 proteins, and is preceded by a methionine (initiation) and a glycine residue. The glycine residue was added in order to introduce an NcoI site for cloning into the expression vector. In addition, systematic C-terminal truncations were performed by PCR to identify a construct that give rise to diffraction-quality crystals.
5 mg of JNK3 was diluted to 0.5 mg/ml in 50 mM HEPES buffer, pH 7.5, containing 100 mM NaCl, 5 mM DTT, 20 mM MgCl2 and 1 mM ATP. GST-MKK7(DD) was added at a molar ratio of 1:2.5 GST-MKK7:JNK3. After incubation for 30 minutes at 25° C., the reaction mixture was concentrated 5-fold by ultrafiltration in a Centriprep-30 (Amicon, Beverly, Mass.), diluted to 10 ml and an additional 1 mM ATP added. This procedure was repeated three times to remove ADP and replenish ATP. The final addition of ATP was 5 mM and the mixture incubated overnight at 4° C.
The activated JNK3/GST-MKK7(DD) reaction mixture was exchanged into 50 mM HEPES buffer, pH 7.5, containing 5 mM DTT and 5% glycerol (w/v) by dialysis or ultrafiltration. The reaction mixture was adjusted to 1.1 M potassium phosphate, pH 7.5, and purified by hydrophobic interaction chromatography (at 25° C.) using a Rainin Hydropore column. […] Activated JNK3 (i.e. doubly phosphorylated JNK3) was stored at −70° C. at 0.25-1 mg/ml.
Compounds were assayed for the inhibition of JNK3 by a spectrophotometric coupled-enzyme assay. In this assay, a fixed concentration of activated JNK3 (10 nM) was incubated with various concentrations of a potential inhibitor dissolved in DMSO for 10 minutes at 30° C. in a buffer containing 0.1 M HEPES buffer, pH 7.5, containing 10 mM MgCl2, 2.5 mM phosphoenolpyruvate, 200 μM NADH, 150 μg/mL pyruvate kinase, 50 μg/mL lactate dehydrogenase, and 200 μM EGF receptor peptide. […] The reaction was initiated by the addition of 10 μM ATP and the assay plate is inserted into the spectrophotometer's assay plate compartment that was maintained at 30° C. The decrease of absorbance at 340 nm was monitored as a function of time. The rate data as a function of inhibitor concentration was fitted to competitive inhibition kinetic model to determine the Ki.

In the case of `Cc1onc(-c2cccc(F)c2)c1-c1ccnc(NC(=O)c2cccc(Cl)c2)n1` [IIIA-45], the Ki lay within 100 to 1000 nM. The same measure for `Cc1cccc(C(=O)Nc2nccc(-c3c(-c4ccccc4)noc3C)n2)c1` [IIIA-6]: 100 to 1000 nM.

As to `COc1cc(OC)cc(C(=O)Nc2nccc(-c3c(-c4ccccc4)noc3C)n2)c1` [IIIA-42], the Ki fell in the range of 100 to 1000 nM. With `COc1ccc(Nc2cc(-c3c(-c4ccccc4)noc3C)ccn2)cc1` [IIA-47], the Ki was < 100 nM. In the case of `Cc1onc(-c2ccccc2)c1-c1ccnc(NC(=O)c2ccc(C#N)cc2)n1` [IIIA-11], the Ki lay in the range of 100 to 1000 nM. Turning to `COc1cccc(C(=O)Nc2nccc(-c3c(-c4cccc(C#N)c4)noc3C)n2)c1` [IIIA-39], the Ki is > 1000 nM. The same measure for `Cc1onc(-c2c(Cl)cccc2Cl)c1-c1ccnc(Nc2ccccc2)n1` [IIA-84]: 100 to 1000 nM; for `Cc1ccc2ccccc2c1Nc1nccc(-c2c(-c3ccccc3)noc2C)n1` [IIAA-15]: 100 to 1000 nM.

As to `Cc1onc(-c2ccccc2)c1-c1ccnc(Nc2ccc3ccccc3c2)n1` [IIAA-4], the inhibitory constant (Ki) fell in the range of 100 to 1000 nM.

`Cc1onc(-c2ccccc2)c1-c1ccnc(Nc2ccccc2F)n1` [IIA-59]: the Ki was < 100 nM. In the case of `COc1cc(C(=O)Nc2nccc(-c3c(-c4ccccc4C(F)(F)F)noc3C)n2)cc(OC)c1OC` [IIIA-22], the Ki is > 1000 nM. `Cc1onc(-c2ccccc2)c1-c1ccnc(NC(=O)CC(C)C)n1` [XA-4]: the Ki lay in the range of 100 to 1000 nM. As for `Cc1cccc(C(=O)Nc2nccc(-c3c(-c4c(F)cccc4F)noc3C)n2)c1` [IIIA-67], the Ki was in the range of 100 to 1000 nM. As for `Cc1onc(-c2cccc(OCc3ccccc3)c2)c1-c1ccnc(Nc2ccc(C#N)c(F)c2)n1` [IIA-117], the Ki fell in the range of 100 to 1000 nM. As for `COc1cccc(OC)c1C(=O)Nc1nccc(-c2c(-c3ccccc3)noc2C)n1` [IIIA-10], the Ki is > 1000 nM. Turning to `COc1ccc2cc(Nc3nccc(-c4c(-c5ccccc5)noc4C)n3)ccc2c1` [IIAA-10], the Ki is < 100 nM. As for `Cc1onc(-c2ccccc2)c1-c1ccnc(NC2CCC(=O)CC2)n1` [IIAA-38], the Ki is < 100 nM.

On to `COc1ccc(C(=O)Nc2nccc(-c3c(-c4cccc(C#N)c4)noc3C)n2)cc1` [IIIA-40], for which the Ki was > 1000 nM.

Take `Cc1onc(-c2cccc(OCc3ccccc3)c2)c1-c1ccnc(Nc2ccccc2)n1` [IIA-119]: the Ki lay within 100 to 1000 nM.

Turning to `Cc1onc(-c2c(F)cccc2Cl)c1-c1ccnc(Nc2ccccc2)n1` [IIA-75], the Ki was 100 to 1000 nM. Take `Cc1onc(-c2ccccc2)c1-c1ccnc(Nc2ccc3c(c2)CCC3=O)n1` [IIAA-11]: the Ki is < 100 nM. Take `Cc1onc(-c2c(F)cccc2F)c1-c1ccnc(NC(=O)c2cccc(C#N)c2)n1` [IIIA-71]: the Ki was 100 to 1000 nM.

Regarding `Cc1onc(-c2c(F)cccc2F)c1-c1ccnc(Nc2ccc(F)cc2)n1` [IIA-95], the Ki is < 100 nM. For the compound `CCOC(=O)N1CCC(Nc2nccc(-c3c(-c4ccccc4)noc3C)n2)CC1` [IIAA-31], the Ki was < 100 nM.

As for `OCc1onc(-c2ccc(F)cc2)c1-c1ccnc(NC2CCCCC2)n1` [XIA-45, [4-(2-Cyclohexylamino-pyrimidin-4-yl)-3-(4-fluoro-phenyl)-isoxazol-5-yl]methanol], the Ki was < 100 nM. The result for `Cc1onc(-c2ccccc2)c1-c1ccnc(Nc2cccc(CO)c2)c1` [IIA-134] reads < 100 nM. For the compound `Cc1ccc2cc(Nc3nccc(-c4c(-c5ccccc5C)noc4C)n3)ccc2n1` [IIAA-20], the Ki was in the range of 100 to 1000 nM. On to `Cc1onc(-c2c(F)cccc2F)c1-c1ccnc(NC(=O)c2ccc3ccccc3c2)n1` [IIIA-73], for which the Ki fell in the range of 100 to 1000 nM. As for `Cc1onc(C2CC2)c1-c1ccnc(Nc2ccccc2)n1` [IIA-87], the Ki was > 1000 nM. Regarding `Cc1onc(-c2ccccc2)c1-c1ccnc(Nc2ccc(N(C)C)cc2)c1` [IIA-98], the Ki is < 100 nM. Consider `Cc1onc(-c2ccccc2)c1-c1ccnc(NC(=O)c2cccc(C#N)c2)n1` [IIIA-43], for which the Ki is < 100 nM. The result for `Cc1onc(-c2ccccc2)c1-c1ccnc(NC(=O)c2cccs2)n1` [IIIA-15] reads < 100 nM. Consider `Cc1onc(-c2ccccc2)c1-c1ccnc(NC2CCCCC2)n1` [IIAA-24], for which the Ki is < 100 nM. With `COc1ccc(C(=O)Nc2nccc(-c3c(-c4ccccc4F)noc3C)n2)cc1` [IIIA-58], the Ki lay within 100 to 1000 nM. `Cc1onc(-c2ccccc2)c1-c1ccnc(NC(=O)c2ccccc2Br)n1` [IIIA-2]: the Ki was > 1000 nM. Consider `COc1ccc(C(=O)Nc2nccc(-c3c(-c4ccccc4C(F)(F)F)noc3C)n2)cc1` [IIIA-24], for which the Ki was > 1000 nM.

In the case of `Cc1onc(-c2c(F)cccc2F)c1-c1ccnc(Nc2ccccc2)n1` [IIA-60], the Ki was < 100 nM. The same measure for `COc1cccc(C(=O)Nc2nccc(-c3c(-c4cccc(OCc5ccccc5)c4)noc3C)n2)c1` [IIIA-31]: 100 to 1000 nM; for `Cc1onc(-c2ccccc2)c1-c1ccnc(Nc2cccc(C#N)c2)c1` [IIA-67]: < 100 nM. The result for `Cc1cccc(Nc2nccc(-c3c(-c4ccccc4C)noc3C)n2)c1` [IIA-108] reads < 100 nM. Regarding `CCc1onc(-c2ccccc2)c1-c1ccnc(Nc2ccccc2)c1` [IIA-40], the Ki was < 100 nM.

Take `Fc1ccc(-c2noc(COCc3ccccc3)c2-c2ccnc(NCCc3ccccn3)n2)cc1` [XIA-53]: the Ki is < 100 nM. As to `Cc1ccccc1C(=O)Nc1nccc(-c2c(-c3ccccc3)noc2C)n1` [IIIA-5], the Ki is > 1000 nM.

On to `Cc1onc(-c2ccccc2F)c1-c1ccnc(NC(=O)c2ccc3ccccc3c2)n1` [IIIA-63], for which the Ki was in the range of 100 to 1000 nM. As to `COCCOCc1onc(-c2ccc(F)cc2)c1-c1ccnc(NC2CCCCC2)n1` [XIA-49], the Ki was < 100 nM. Regarding `COc1cccc(C(=O)Nc2nccc(-c3c(-c4ccccc4C)noc3C)n2)c1` [IIIA-19], the Ki was in the range of 100 to 1000 nM. As to `COc1ccc(-c2noc(C)c2-c2ccnc(Nc3ccccc3)n2)c(OC)c1` [IIA-13], the Ki is > 1000 nM. As to `COC(=O)c1ccc2cc(Nc3nccc(-c4c(-c5ccccc5)noc4C)n3)ccc2c1` [IIAA-16], the Ki is < 100 nM. As for `COC(=O)c1ccc(C(=O)Nc2nccc(-c3c(-c4ccccc4)noc3C)n2)cc1` [IIIA-44], the Ki was in the range of 100 to 1000 nM. Take `COc1ccc(C(=O)Nc2nccc(-c3c(-c4ccccc4)noc3C)n2)cc1` [IIIA-7]: the Ki fell in the range of 100 to 1000 nM. For `Cc1ccc2cc(Nc3nccc(-c4c(-c5cccc([N+](=O)[O-])c5)noc4C)n3)ccc2n1` [IIAA-22], the Ki lay within 100 to 1000 nM.

With `Cc1ccc(Nc2nccc(-c3c(-c4ccccc4)noc3C)n2)cc1` [IIA-103], the Ki was < 100 nM.

For the compound `Cc1onc(-c2ccccc2)c1-c1ccnc(Nc2ccc(-c3ccccc3)cc2)n1` [IIA-44], the Ki is < 100 nM. `Cc1onc(-c2ccccc2)c1-c1ccnc(Nc2ccc(S(C)(=O)=O)cc2)n1` [IIA-63]: the inhibition constant (Ki) was < 100 nM. Take `Cc1onc(-c2cccc([N+](=O)[O-])c2)c1-c1ccnc(Nc2ccccc2)n1` [IIA-123]: the Ki is 100 to 1000 nM.

With `COc1ccc(C(=O)Nc2nccc(-c3c(-c4cccc(OCc5ccccc5)c4)noc3C)n2)cc1` [IIIA-32], the Ki lay within 100 to 1000 nM.

In the case of `COc1cc(C(=O)Nc2nccc(-c3c(-c4ccccc4F)noc3C)n2)cc(OC)c1OC` [IIIA-62], the Ki fell in the range of 100 to 1000 nM. The same measure for `COc1cccc(C(=O)Nc2nccc(-c3c(-c4cccc([N+](=O)[O-])c4)noc3C)n2)c1` [IIIA-35]: > 1000 nM. As to `Cc1onc(-c2c(F)cccc2F)c1-c1ccnc(NC(=O)c2cccc(Cl)c2)n1` [IIIA-64], the Ki lay in the range of 100 to 1000 nM. The same measure for `Cc1onc(-c2ccccc2)c1-c1ccnc(Nc2ccc(F)cc2)n1` [IIA-42]: < 100 nM.

For `Cc1ccc(C(=O)Nc2nccc(-c3c(-c4ccccc4F)noc3C)n2)cc1` [IIIA-60], the Ki was in the range of 100 to 1000 nM.

Take `COc1cccc(-c2noc(C)c2-c2ccnc(Nc3ccccc3)n2)c1OC` [IIA-85]: the Ki was > 1000 nM.

Take `COc1ccc(C(=O)Nc2nccc(-c3c(-c4ccccc4)noc3C)n2)c(OC)c1` [IIIA-9]: the inhibition constant Ki is > 1000 nM. With `Cc1onc(-c2ccc(Cl)c(Cl)c2)c1-c1ccnc(Nc2ccccc2)n1` [IIA-15], the Ki fell in the range of 100 to 1000 nM.
